This is an account of results in patent publication US20240351967A1, “METHODS OF PREPARATION OF ZINGERONE, COMPOSITIONS COMPRISING ZINGERONE, AND USES THEREFOR” (Evithe Limited, priority 2021, published 2024).

What is called Log P is a log measure of how a compound divides between an organic and an aqueous phase.

The subject of data set [1] is Staphylococcus aureus. As to the kind of experiment: Chequerboard analysis / MIC against Staphylococcus aureus (MRSA cells). The format is cell-based. As for the experimental part: Chequerboard analysis was used to determine whether compounds could be combined to decrease the MIC for Staphylococcus aureus, as compared to each individual compound. In the present experiments, combinations of zingerone plus gentamicin, zingerone plus vancomycin, and zingerone plus cefotaxime were tested. For this testing, 96 well plates were inoculated Staphylococcus aureus, and then incubated with the test compounds for 24 hours at 37° C. For zingerone, additions were made at […], 12.5, and 25 mg/ml. For gentamicin, additions were made at 0, 4, 8, 16, 32, 64, 128, and 256 μg/ml. For vancomycin, additions were made at 0, 4, 8, 16, 32, 64, 128, and 256 μg/ml. For cefotaxime, additions were made at 0, 8, 16, 32, 64, 128, 256, and 512 μg/ml. MRSA cells (methicillin-resistant Staphylococcus aureus) were introduced in Mueller Hinton media with 2% NaCl. 10^8 cells per ml were utilised. The FICI index was used to quantify the interaction of the compounds interact employing the following equation: FICI=(MICA^combi/MICA^alone)+ (MICB^combi/MICB^alone). A FICI of ≤0.5 was designated as synergy, and a FICI of >4.0 was defined as antagonism. A FICI of 0.5 to 1.0 was deemed as a significant improvement although not synergistic.

The subject of data set [2] is Pseudomonas aeruginosa. Particulars: cited from earlier work.
For data set [3] the following is noted: cited from earlier work.
Data set [4] relates to liver inflammation. The conditions noted are these: peritonitis mouse model; cited from earlier work.
For data set [5] the following is noted: EFSA 2016; 14 (8): 4557; cited from earlier work.
[6] abbreviates: individual compound, 24 hours at 37° C., MRSA in Mueller Hinton media with 2% NaCl.

Converted amounts (≈) assume the structure as drawn. “And” between values parts separate entries of the source, which are not always exact repeats. Equal entries are not always repeated. Where two headings read alike, the source gives them in different places. Bounds are passed on as bounds.

For the molecule Gentamicin [reference compound], the results for the MIC in data set [1] (gentamicin in combination with zingerone) and in data set [1] (setting [6]) were 4 µg/mL and 16 µg/mL, respectively.
Take `COc1cc(CCC(C)=O)ccc1O` [Zingerone]: the “effect on susceptibility of cells to antibiotics” value in data set [2] is given as “enhance the susceptibility”. Besides, the “Log P” value in data set [3] (FoodB compounds database) was 2.02 and 1.92. The water solubility in data set [3] (FoodB compounds database) was 570 µg/mL (≈ 2930 µM). In addition, in data set [3] (reported), the “solubility (in words)” value is “sparingly soluble in water”. In addition, the “effect on liver inflammation” value in data set [4] is “anti-inflammatory effect”. Also, the “No Observed Adverse Effects (NOAEL) dose” value in data set [5] is reported as 128 mg/kg/day. Also, the MIC turned out to be 25 mg/g in data set [1] (setting [6]), 25 mg/g in data set [1] (zingerone in combination with cefotaxime), 6.25 mg/g in data set [1] (zingerone in combination with gentamicin) and 12.5 mg/g in data set [1] (zingerone in combination with vancomycin).
`CO/N=C(\C(=O)N[C@@H]1C(=O)N2C(C(=O)O)=C(COC(C)=O)CS[C@H]12)c1csc(N)n1` [Cefotaxime, reference compound]: the MIC in data set [1] (Staphylococcus aureus, individual compound, 24 hours at 37° C., MRSA in Mueller Hinton media with 2% NaCl, read-out: MIC) is above 512 µg/mL.
As for `CN[C@H](CC(C)C)C(=O)N[C@H]1C(=O)N[C@@H](CC(N)=O)C(=O)N[C@H]2C(=O)N[C@H]3C(=O)N[C@H](C(=O)N[C@H](C(=O)O)c4cc(O)cc(O)c4-c4cc3ccc4O)[C@H](O)c3ccc(c(Cl)c3)Oc3cc2cc(c3O[C@@H]2O[C@H](CO)[C@@H](O)[C@H](O)[C@H]2O[C@H]2C[C@](C)(N)[C@H](O)[C@H](C)O2)Oc2ccc(cc2Cl)[C@H]1O` [Vancomycin, reference compound], the MIC in data set [1] (Staphylococcus aureus, MRSA, 24 h) was 8 µg/mL.
